# Experimental data published in patent US20220117958A1, “COMPOSITIONS AND METHODS FOR INHIBITING ACSS2” (THE TRUSTEES OF THE UNIVERSITY OF PENNSYLVANIA, priority 2018, published 2022).
# Tests used:
# Type in all cases: in vitro ADME
# [1] = Microsomal stability assay (half-life), human; conditions: Human microsomes, read-out: Microsomal stability T1/2
# Source text: (§1) Table 20 provides results of in vitro and in vivo pharmacokinetics performed for each of the represented compounds.
# [2] = Microsomal stability assay (half-life), mouse; conditions: Mouse (CD1) microsomes, read-out: Microsomal stability T1/2
# Source text: as §1
# [3] = Microsomal stability assay (half-life), rat; conditions: Rat (SD) microsomes, read-out: Microsomal stability T1/2
# Source text: as §1
# [4] = Protein binding via Rapid Equilibrium Dialysis - plasma; conditions: Rat (SD) plasma, 2 μM
# Source text: as §1
SMILES,half-life at 2 μM [1] [min],half-life at 2 μM [2] [min],half-life at 2 μM [3] [min],"Protein binding, plasma: % Protein free [4] [% Protein free]"
"CCOc1ccc2ccc(=O)oc2c1 [7-Ethoxycoumarin, reference compound]",7.97,< 15,6.13,
"CC(=O)CC(c1ccccc1)c1c(O)c2ccccc2oc1=O (stereo not shown) [Warfarin, reference compound]",,,,0.5177
